Reference: patent publication US10407382B2, “EP4 agonists as therapeutic compounds” (ALLERGAN, INC., priority 2014, dated 2019)

Assays:
[1] = molecular target: T1, EP4 (Homo sapiens, UniProt P35408); assay: Radioligand binding, EP4; design: expressed in transfected cells; membrane fraction; details: [3H]PGE2 competition
Method: (§1) Data from running binding and activity studies on the compounds of the invention were carried out as described in U.S. Pat. No. 7,427,685, the contents of which are incorporated herein by reference.
(§2) Cells Stably Expressing EP1, EP2, EP4, and FP Receptors
(§3) HEK-293 cells stably expressing the human or feline FP receptor, or EP1, EP2, or EP4 receptors were washed with TME buffer, scraped from the bottom of the flasks, and homogenized for 30 sec using a Brinkman PT 10/35 polytron. TME buffer was added to achieve a final 40 ml volume in the centrifuge tubes (the composition of TME is 100 mM TRIS base, 20 mM MgCl2, […]; ION HCl is added to achieve a pH of 7.4).
(§4) The cell homogenate was centrifuged at 19000 rpm for 20 min at 4° C. using a Beckman Ti-60 rotor. The resultant pellet was resuspended in TME buffer to give a final 1 mg/ml protein concentration, as determined by Biorad assay. Radioligand binding competition assays vs. [^3H-]17-phenyl PGF2α (5 nM) were performed in a 100 μl volume for 60 min. Binding reactions were started by adding plasma membrane fraction. The reaction was terminated by the addition of 4 ml ice-cold TRIS-HCl buffer and rapid filtration through glass fiber GF/B filters using a Brandel cell harvester. The filters were washed 3 times with ice-cold buffer and oven dried for one hour.
(§5) [^3H-] PGE2 (specific activity 180 Ci mmol) was used as the radio ligand for EP receptors. [^3H] 17-phenyl PGF2α was employed for FP receptor binding studies. Binding studies employing EP1, EP2, EP4 and FP receptors were performed in duplicate in at least three separate experiments. A 200 μl assay volume was used. Incubations were for 60 min at 25° C. and were terminated by the addition of 4 ml of ice-cold 50 mM TRIS-HCl, followed by rapid filtration through Whatman GF/B filters and three additional 4 ml washes in a cell harvester (Brandel). Competition studies were performed using a final concentration of 5 nM [^3H]-PGE2, or 5 nM [^3H] 17-phenyl PGF2α and non-specific binding determined with 10^−5M of unlabeled PGE2, or 17-phenyl PGF2α, according to receptor subtype studied.

[2] = molecular target: T2, EP2 (Homo sapiens, UniProt P43116); assay: Ki competition binding, EP2; design: expressed in transfected cells; details: [3H]PGE2 competition; NA = no activity
Method: as §1
Competition binding experiments were performed in a medium containing Hank's balanced salt solution, Hepes 20 mM, pH 7.3, membranes (˜60 μg protein) or 2×10^5 cells from HEK 293 cells stably expressing human EP2 receptors, [^3H]PGE2 (10 nM) and various concentrations of test compounds in a total volume of 300 μl. Reaction mixtures were incubated at 23° C. for 60 min, and were filtered over Whatman GF IB filters under vacuum. Filters were washed three times with 5 ml ice-cold buffer containing 50 mM Tris/HCl (PH 7.3). Non-specific binding was estimated in the presence of excess unlabeled PGE2 (10 μM). Binding data fitted to the binding model for a single class of binding sites, using nonlinear regression analysis. IC50 values thus obtained were converted to Ki using the equation of Ki=(IC50/(1+[L]/KD) where [L] represents PGE2 concentration (10 nM) and KD the dissociation constant for [^3H]PGE2 at human EP2 receptors (40 nM).
as §2, §3, §4, §5

[3] = molecular target: T3, hIP (Homo sapiens, UniProt P43119); assay: FLIPR calcium signal, hIP; assay type: cell-based; details: HEK-293(EBNA) cells; NA = no activity; read-out: Other Receptors EC50 hIP
T3 construct: expressed in transfected cells
Method: Methods for FLIPR™ Studies
HEK-293(EBNA) cells, stably expressing one type or subtype of recombinant human prostaglandin receptors (prostaglandin receptors expressed: hDP/Gqs5; hEP1; hEP2/Gqs5; hEP3A/Gqi5; hEP4/Gqs5; hFP; hIP; hTP), were cultured in 100 mm culture dishes in high-glucose DMEM medium containing 10% fetal bovine serum, 2 mM I-glutamine, 250 μg/ml geneticin (G418) and 200 μg/ml hygromycin B as selection markers, and 100 units/ml penicillin G, 100 μg/ml streptomycin and 0.25 μg/ml amphotericin B.
(b) Calcium Signal Studies on the FLIPR™
Cells were seeded at a density of 5×10^4 cells per well in Biocoat® Poly-D-lysine-coated black-wall, clear-bottom 96-well plates (Becton-Dickinson) and allowed to attach overnight in an incubator at 37° C. Cells were then washed two times with HBSS-HEPES buffer (Hanks Balanced Salt Solution without bicarbonate and phenol red, 20 mM HEPES, pH 7.4) using a Denley Cellwash plate washer (Labsystems). […]
Cells were excited with an Argon laser at 488 nm, and emission was measured through a 510-570 nm bandwidth emission filter (FLIPR™, Molecular Devices, Sunnyvale, Calif.). […] The peak increase in fluorescence intensity was recorded for each well. […] The peak fluorescence change in each drug-containing well was then expressed relative to the controls. […]

[4] = molecular target: T1, EP4; assay: cAMP assay, EP4; assay type: cell-based; design: expressed in transfected cells; host or cells: HEK-EBNA cells; details: HEK-EBNA cells expressing EP4
Method: (§6) A 384-well drug plate was prepared to contain 6 test compounds, PGE2 and cAMP in 16 serial dilutions in triplicate, using a Biomek station. HEK-EBNA cells expressing a target PG receptor subtype (EP2 or EP4) were suspended in a stimulation buffer (HBSS, 0.1% BSA, 0.5 mM IBMX and 5 mM HEPES, pH 7.4) in a density of 10^4 cells/5 μL. The reaction was initiated by mixing 5 μL drug dilutions with 5 μL of HEK-EBNA cells in a well, carried out for 30 min at room temperature, and followed by the addition of 5 μL anti-cAMP acceptor beads in the control buffer with Tween-20 (25 mM NaCl, 0.03% Tween-20, 5 mM HEPES, pH 7.4). After 30 min in the dark at room temperature, the mixtures were incubated with 15 μL biotinylated-cAMP/strepavidin donor beads in Lysis/Detection buffer (0.1% BSA, 0.3% Tween-20 and 5 mM HEPES, pH 7.4) for 45 min at the room temperature. Fluorescence changes were read using a Fusion-alpha HT microplate reader.

[5] = molecular target: T2, EP2; assay: cAMP assay, EP2; assay type: cell-based; design: expressed in transfected cells; host or cells: HEK-EBNA cells; details: HEK-EBNA cells expressing EP2
Method: as §6

T2 sequence (P43116 whole entry): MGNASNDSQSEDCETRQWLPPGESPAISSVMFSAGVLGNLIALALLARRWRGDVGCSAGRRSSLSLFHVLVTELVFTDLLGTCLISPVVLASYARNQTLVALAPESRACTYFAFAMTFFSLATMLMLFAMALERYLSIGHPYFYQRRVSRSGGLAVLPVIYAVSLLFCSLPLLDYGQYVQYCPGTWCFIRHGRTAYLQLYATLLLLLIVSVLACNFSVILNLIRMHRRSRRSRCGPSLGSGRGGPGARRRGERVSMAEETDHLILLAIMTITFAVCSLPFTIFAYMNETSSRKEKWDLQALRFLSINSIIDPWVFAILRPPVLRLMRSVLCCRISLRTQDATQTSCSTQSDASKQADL
T1 sequence (P35408 whole entry): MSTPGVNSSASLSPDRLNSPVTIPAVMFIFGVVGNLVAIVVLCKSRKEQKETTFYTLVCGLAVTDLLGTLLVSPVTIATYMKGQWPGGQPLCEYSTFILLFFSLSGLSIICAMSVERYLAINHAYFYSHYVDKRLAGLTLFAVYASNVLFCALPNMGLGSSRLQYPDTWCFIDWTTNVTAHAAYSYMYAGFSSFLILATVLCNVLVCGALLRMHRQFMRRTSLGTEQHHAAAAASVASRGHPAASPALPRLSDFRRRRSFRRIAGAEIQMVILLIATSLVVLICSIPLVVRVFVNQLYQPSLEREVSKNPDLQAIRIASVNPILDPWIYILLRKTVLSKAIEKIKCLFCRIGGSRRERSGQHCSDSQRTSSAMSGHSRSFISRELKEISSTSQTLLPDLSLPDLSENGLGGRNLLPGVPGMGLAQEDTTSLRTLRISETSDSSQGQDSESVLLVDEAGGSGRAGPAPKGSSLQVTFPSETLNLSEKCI
T3 sequence (P43119 whole entry): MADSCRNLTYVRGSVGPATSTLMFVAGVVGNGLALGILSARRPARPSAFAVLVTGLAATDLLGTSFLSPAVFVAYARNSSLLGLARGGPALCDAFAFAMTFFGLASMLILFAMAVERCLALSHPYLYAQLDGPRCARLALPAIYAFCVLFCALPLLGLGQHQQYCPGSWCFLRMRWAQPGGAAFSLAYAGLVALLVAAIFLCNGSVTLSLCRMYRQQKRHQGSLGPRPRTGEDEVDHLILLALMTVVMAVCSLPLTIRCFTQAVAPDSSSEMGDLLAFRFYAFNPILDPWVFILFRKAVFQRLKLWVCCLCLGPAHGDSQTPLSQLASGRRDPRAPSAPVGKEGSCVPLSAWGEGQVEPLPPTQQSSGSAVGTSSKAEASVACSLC

SMILES	Ki [1] [nM]	Ki [2] [nM]	EC50 [3] [nM]	EC50 [4] [nM]	EC50 [5] [nM]
O=C(O)c1ccc(CNC(=O)C2CCCC2Cc2cccc(C(F)(F)F)c2)cc1 (single isomer, unassigned) [Example 6, 4-((2-(3-(Trifluoromethyl)benzyl)cyclopentanecarboxamido)methyl)benzoic Acid]	18	733	> 10000	> 10000	10
O=C(O)c1ccc(CNC(=O)C2CCCC2Cc2cccc(C(F)(F)F)c2)cc1 (single isomer, unassigned) [Example 5, 4-((2-(3-(Trifluoromethyl)benzyl)cyclopentanecarboxamido)methyl)benzoic Acid]	8	154		> 10000	13
O=C(NCc1ccc(C(=O)O)cc1)C1=C(Cc2cccc(C(F)(F)F)c2)CCC1 [Example 4, 4-((2-(3-(Trifluoromethyl)benzyl)cyclopent-1-enecarboxamido)methyl)benzoic Acid]	7	109		> 10000	2
COc1cc(CC2CCCCCC2C(=O)NCc2ccc(C(=O)O)cc2)cc(OC)c1 (single isomer, unassigned) [Example 12, 4-((2-(3,5-Dimethoxybenzyl)cycloheptanecarboxamido)methyl)benzoic Acid]	9	> 10000		> 10000	1310
O=C(O)c1ccc(CNC(=O)C2CCCCC2Cc2ccccc2)cc1 (single isomer, unassigned) [Example 26, 4-((2-Benzylcyclohexanecarboxamido)methyl)benzoic Acid]	116	2920		35	
O=C(O)c1ccc(CNC(=O)C2CCCCC2Cc2ccccc2)cc1 (single isomer, unassigned) [Example 25, 4-((2-Benzylcyclohexanecarboxamido)methyl)benzoic Acid]	58	4950		> 10000	

Compounds with a lower Ki [1], results first:

Ki [1] [nM]	Ki [2] [nM]	EC50 [3] [nM]	EC50 [4] [nM]	EC50 [5] [nM]	SMILES
5	1120		1	33	COc1cc(CC2=C(C(=O)NCc3ccc(C(=O)O)cc3)CCC2)cc(OC)c1 [Example 3, 4-((2-(3,5-Dimethoxybenzyl)cyclopent-1-enecarboxamido)methyl)benzoic Acid]
2	2150		> 10000	389	COc1cc(CC2CCCCC2C(=O)NCc2ccc(C(=O)O)cc2)cc(OC)c1 (single isomer, unassigned) [Example 9, 4-((2-(3,5-Dimethoxybenzyl)cyclohexanecarboxamido)methyl)benzoic Acid]
2	6300		0.2	573	COc1cc(CC2CCCCCC2C(=O)NCc2ccc(C(=O)O)cc2)cc(OC)c1 (single isomer, unassigned) [Example 13, 4-((2-(3,5-Dimethoxybenzyl)cycloheptanecarboxamido)methyl)benzoic Acid]
1	177		0.2	2	COc1cc(CC2=C(C(=O)NCc3ccc(C(=O)O)cc3)CCCC2)cc(OC)c1 [Example 8, 4-((2-(3,5-Dimethoxybenzyl)cyclohex-1-enecarboxamido)methyl)benzoic Acid]
2	908		0.2	25	COc1cc(CC2CCCCC2C(=O)NCc2ccc(C(=O)O)cc2)cc(OC)c1 (single isomer, unassigned) [Example 10, 4-((2-(3,5-Dimethoxybenzyl)cyclohexanecarboxamido)methyl)benzoic Acid]
1	2780	> 10000	> 10000	48	COc1cc(CC2=C(C(=O)NCc3ccc(C(=O)O)cc3)CCCCC2)cc(OC)c1 [Example 11, 4-((2-(3,5-Dimethoxybenzyl)cyclohept-1-enecarboxamido)methyl)benzoic Acid]
6	219		> 10000		COc1ccccc1CC1=C(C(=O)NCc2ccc(C(=O)O)cc2)CCCC1 [Example 30, 4-((2-(2-Methoxybenzyl)cyclohex-1-enecarboxamido)methyl)benzoic Acid]
5	994		> 10000		COc1ccccc1CC1CCCCC1C(=O)NCc1ccc(C(=O)O)cc1 (single isomer, unassigned) [Example 31, 4-((2-(2-Methoxybenzyl)cyclohexanecarboxamido)methyl)benzoic Acid]
0.2	> 10000		> 10000		COc1cc(C/C2=C(\C(=O)NCc3ccc(C(=O)O)cc3)CCCCCC2)cc(OC)c1 [Example 20, 4-((2-(3,5-Dimethoxybenzyl)cyclooct-1-enecarboxamido)methyl)benzoic Acid]
